Results reported in patent US10660965B2, “Methods of enhancing drug delivery and effectiveness of therapeutic agents” (priority 2010, dated 2020).

Test system: Patient-derived low passage pancreatic tumor xenografts
Experiment: Tumor regression in patient-derived pancreatic tumor xenografts
Format: in vivo, nude mice
Conditions: 11 xenograft cases; ABI 30 mg/kg i.v. daily x5, GEM 100 mg/kg i.p. twice a week for 4 weeks
Method: Eleven Patient-derived low passage pancreatic tumor xenografts were implanted (s.c) in nude mice. Mice with tumor size of ˜200 mm3 were randomized to four treatment groups (7-10 tumors/group) and treated with 1) Vehicle; 2) Abraxane® (ABI) 30 mg/kg once daily i.v for five consecutive days; 3) Gemcitabine (GEM) 100 mg/kg twice a week for 4 weeks i.p and 4) GEM+ABI in the above mentioned dose and frequency for 4 weeks. Tumor size was measured twice per week using a digital caliper. Number of tumors that regressed more than 50% of its initial size in each tumor xenografts were noted. Extent of stromal desmoplasia and endothelial cell content in control and treated xenografts were determined by Masson's Trichrome staining, IHC and qRTPCR.

With Nc1ccn([C@@H]2O[C@H](CO)[C@@H](O)C2(F)F)c(=O)n1 [GEM, gemcitabine] the “cases that produced >50% regression of tumor size” value was 2 of 11.
